Reference: US9714252B2, “Cyclic sulfonamides as sodium channel blockers” (priority 2012, dated 2017)

Target: human Nav1.7 (Homo sapiens (Human), UniProt Q15858)
Assay: FLIPR sodium dye assay (CoroNa Green) with KCl and test article pre-incubation, recombinant Nav1.7/HEK293 cells
Format: cell-based
Settings: not given

human Nav1.7, sequence (Q15858 with tags, fused parts or gaps limits assumed): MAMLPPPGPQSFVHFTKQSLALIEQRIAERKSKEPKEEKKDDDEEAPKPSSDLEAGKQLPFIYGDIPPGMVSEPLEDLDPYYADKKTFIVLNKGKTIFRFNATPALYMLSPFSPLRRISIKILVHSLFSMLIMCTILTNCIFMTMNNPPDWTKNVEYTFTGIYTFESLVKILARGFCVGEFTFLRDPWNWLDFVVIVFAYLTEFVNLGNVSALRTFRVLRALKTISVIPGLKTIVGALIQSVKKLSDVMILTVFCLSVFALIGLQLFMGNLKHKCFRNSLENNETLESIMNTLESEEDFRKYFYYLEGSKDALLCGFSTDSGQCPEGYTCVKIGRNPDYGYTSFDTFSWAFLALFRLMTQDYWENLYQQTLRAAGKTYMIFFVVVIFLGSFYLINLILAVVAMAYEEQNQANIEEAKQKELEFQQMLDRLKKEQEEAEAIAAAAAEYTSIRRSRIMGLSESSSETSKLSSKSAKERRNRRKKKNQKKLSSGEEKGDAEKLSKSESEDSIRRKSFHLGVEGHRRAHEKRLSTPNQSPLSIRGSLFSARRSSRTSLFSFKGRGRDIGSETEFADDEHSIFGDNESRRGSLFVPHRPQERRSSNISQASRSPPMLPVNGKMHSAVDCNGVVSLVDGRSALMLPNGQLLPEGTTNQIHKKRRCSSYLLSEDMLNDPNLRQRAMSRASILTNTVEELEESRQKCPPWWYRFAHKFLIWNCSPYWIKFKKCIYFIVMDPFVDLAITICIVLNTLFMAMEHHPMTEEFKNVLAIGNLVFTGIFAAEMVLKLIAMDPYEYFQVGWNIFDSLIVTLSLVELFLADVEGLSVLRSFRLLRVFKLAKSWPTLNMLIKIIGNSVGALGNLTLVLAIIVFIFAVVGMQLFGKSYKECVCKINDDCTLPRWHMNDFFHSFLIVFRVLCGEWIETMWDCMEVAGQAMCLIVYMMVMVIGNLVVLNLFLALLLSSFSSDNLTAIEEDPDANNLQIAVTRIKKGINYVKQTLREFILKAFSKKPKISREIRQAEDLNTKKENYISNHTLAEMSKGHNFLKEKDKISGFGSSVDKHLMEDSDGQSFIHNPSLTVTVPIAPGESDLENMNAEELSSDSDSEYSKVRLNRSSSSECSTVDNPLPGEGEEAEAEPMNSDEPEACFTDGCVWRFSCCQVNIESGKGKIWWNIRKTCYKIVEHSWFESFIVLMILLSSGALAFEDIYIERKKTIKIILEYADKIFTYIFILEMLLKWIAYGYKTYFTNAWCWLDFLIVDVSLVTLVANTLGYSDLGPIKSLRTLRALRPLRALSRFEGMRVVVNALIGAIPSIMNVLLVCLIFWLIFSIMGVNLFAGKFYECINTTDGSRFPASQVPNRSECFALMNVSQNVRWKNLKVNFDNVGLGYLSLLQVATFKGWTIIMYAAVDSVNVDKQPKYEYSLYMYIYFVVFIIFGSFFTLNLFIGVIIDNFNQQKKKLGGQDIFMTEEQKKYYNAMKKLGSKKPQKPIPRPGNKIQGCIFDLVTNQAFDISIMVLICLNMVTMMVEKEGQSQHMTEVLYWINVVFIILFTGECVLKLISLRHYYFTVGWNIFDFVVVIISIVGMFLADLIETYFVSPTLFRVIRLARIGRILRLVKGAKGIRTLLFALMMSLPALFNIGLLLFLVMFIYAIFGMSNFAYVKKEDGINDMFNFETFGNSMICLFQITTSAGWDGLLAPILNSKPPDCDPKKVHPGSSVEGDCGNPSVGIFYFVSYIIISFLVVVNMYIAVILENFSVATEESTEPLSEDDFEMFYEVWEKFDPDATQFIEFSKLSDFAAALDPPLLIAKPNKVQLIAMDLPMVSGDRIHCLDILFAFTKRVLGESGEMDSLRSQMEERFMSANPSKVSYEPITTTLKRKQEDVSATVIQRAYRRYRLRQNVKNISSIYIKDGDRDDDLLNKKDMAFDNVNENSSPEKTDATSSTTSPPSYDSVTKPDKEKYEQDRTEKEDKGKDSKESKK

Compound	IC50 [nM]
O=S1(=O)c2ccc(N3CCC4(CC3)OCc3ccccc34)cc2CCN1c1nccs1 [Compound 5, 6-(3H-spiro[isobenzofuran-1,4′-piperidin]-1′-yl)-2-(thiazol-2-yl)-3,4-dihydro-2H-benzo[e][1,2]thiazine 1,1-dioxide]	766
O=S1(=O)c2ccc(Oc3ccccc3-c3ccccc3)cc2CCN1c1nccs1 [Compound 6, 6-([1,1′-biphenyl]-2-yloxy)-2-(thiazol-2-yl)-3,4-dihydro-2H-benzo[e][1,2]thiazine 1,1-dioxide]	1700

Same assay, conditions: recombinant human Nav1.7 in HEK293; veratridine + scorpion venom stimulation

Compound	IC50 [nM]
O=S1(=O)c2ccc(Oc3ccc(C(F)(F)F)cc3-c3ccnnc3)cc2CN1c1nccs1 [Compound 1, 5-(2-(pyridazin-4-yl)-4-(trifluoromethyl)phenoxy)-2-(thiazol-2-yl)-2,3-dihydrobenzo[d]isothiazole 1,1-dioxide]	1740
O=S1(=O)c2ccc(Oc3ccccc3-c3ccccc3)cc2CN1c1nccs1 [Compound 2, 5-([1,1′-biphenyl]-2-yloxy)-2-(thiazol-2-yl)-2,3-dihydrobenzo[d]isothiazole 1,1-dioxide]	> 20000
Cn1nccc1-c1cc(Cl)ccc1Oc1ccc2c(c1)CN(c1nccs1)S2(=O)=O [Compound 3, 5-(4-chloro-2-(1-methyl-1H-pyrazol-5-yl)phenoxy)-2-(thiazol-2-yl)-2,3-dihydrobenzo[d]isothiazole 1,1-dioxide]	9100
O=S1(=O)c2ccc(N3CCC4(CC3)OCc3ccccc34)cc2CN1c1nccs1 [Compound 4, 5-(3H-spiro[isobenzofuran-1,4′-piperidin]-1′-yl)-2-(thiazol-2-yl)-2,3-dihydrobenzo[d]isothiazole 1,1-dioxide]	1380
O=S1(=O)c2ccc(-c3ccc(Oc4ccc(C(F)(F)F)cc4)cc3)cc2CCN1c1nccs1 [Compound 7, 2-(thiazol-2-yl)-6-(4-(4-(trifluoromethyl)phenoxy)phenyl)-3,4-dihydro-2H-benzo[e][1,2]thiazine 1,1-dioxide]	7090
